Counter-ions that a name gives are not always drawn. Bounds are passed on as bounds.

The first experiment concerns Human mast cells (CHMC). As to the kind of experiment: LD Tryptase release assay in CHMC (mast cell activation induced by FcγR cross-linking). In kind it is cell-based. Particulars: Homo sapiens, Mast cell, anti-IgG stimulation, activity of tryptase released upon degranulation. The method in brief:
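Mast cells derived from CD38-negative progenitors were preincubated 1 h at 37 °C with compound in HEPES-buffered saline (pH 7.4, 0.1% BSA, compound diluted in buffer with 2% MeOH/1% DMSO). Cells were then stimulated 60 min with anti-human IgG (final 1 μg/mL). Released tryptase was measured on Z-Ala-Lys-Arg-AMC (30 min, room temperature, 355/460 nm) to give the IC50.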
The IC50 is the point on the concentration scale where inhibition reaches its midpoint. With `[2H]C1([2H])OC([2H])([2H])C([2H])([2H])N(c2ccc(Nc3ncc(F)c(Nc4ccc5c(n4)NC(=O)C(C)(C)O5)n3)cn2)C1([2H])[2H]` [Compound 107, N4-(2,2-dimethyl-3,4-dihydro-3-oxo-2H-pyrido[3,2-b][1,4]oxazin-6-yl)-5-fluoro-N2-[6-(2,2,3,3,5,5,6,6-d8-morpholino)pyridin-3-yl]-2,4-pyrimidinediamine], the IC50 is < 100 nM.
Same read-out and setting: next, `CN(C[C@@H]1CCCO1)c1ccc(Nc2ncc(F)c(Nc3ccc4c(n3)NC(=O)CO4)n2)cn1` [Compound 108, N4-(3,4-dihydro-3-oxo-2H-pyrido[3,2-b][1,4]oxazin-6-yl)-5-fluoro-N2-[6-(((S)-methyl(tetrahydrofuran-2-yl)methyl)amino)pyridin-3-yl]-2,4-pyrimidinediamine]: 100 to 500 nM; `CN(C[C@@H]1CCCO1)c1ccc(Nc2ncc(F)c(Nc3ccc4c(n3)NC(=O)C(C)(C)O4)n2)cn1` [Compound 109]: 100 to 500 nM; `CN(C[C@H]1CCCO1)c1ccc(Nc2ncc(F)c(Nc3ccc4c(n3)NC(=O)CO4)n2)cn1` [Compound 110, N4-(3,4-dihydro-3-oxo-2H-pyrido[3,2-b][1,4]oxazin-6-yl)-5-fluoro-N2-[6-(((R)-methyl(tetrahydrofuran-2-yl)methyl)amino)pyridin-3-yl]-2,4-pyrimidinediamine]: 1000 to 100000 nM.
In the case of `CN(C[C@H]1CCCO1)c1ccc(Nc2ncc(F)c(Nc3ccc4c(n3)NC(=O)C(C)(C)O4)n2)cn1` [Compound 111], the IC50 was 100 to 500 nM.
Turning to `CC1(C)CN(c2ccc(Nc3ncc(F)c(Nc4ccc5c(n4)NC(=O)CO5)n3)cc2)CCO1` [Compound 115, N4-(3,4-dihydro-3-oxo-2H-pyrido[3,2-b][1,4]oxazin-6-yl)-N2-[4-(2,2-dimethylmorpholino)phenyl]-5-fluoro-2,4-pyrimidinediamine], the IC50 is < 100 nM.
Still for that read-out and setting: next, `CC1(C)CN(c2ccc(Nc3ncc(F)c(Nc4ccc5c(n4)NC(=O)C(C)(C)O5)n3)cc2)CCO1` [Compound 116, N4-(2,2-dimethyl-3,4-dihydro-3-oxo-2H-pyrido[3,2-b][1,4]oxazin-6-yl)-N2-[4-(2,2-dimethylmorpholino)phenyl]-5-fluoro-2,4-pyrimidinediamine]: < 100 nM; `C[C@@H]1CN(c2ccc(Nc3ncc(F)c(Nc4ccc5c(n4)NC(=O)CO5)n3)cc2)CCO1` [Compound 117, N4-(3,4-dihydro-3-oxo-2H-pyrido[3,2-b][1,4]oxazin-6-yl)-5-fluoro-N2-[4-((2R)-2-methylmorpholino)phenyl]-2,4-pyrimidinediamine]: < 100 nM.
Still for that read-out and setting: next, `C[C@@H]1CN(c2ccc(Nc3ncc(F)c(Nc4ccc5c(n4)NC(=O)C(C)(C)O5)n3)cc2)CCO1` [Compound 118, N4-(2,2-dimethyl-3,4-dihydro-3-oxo-2H-pyrido[3,2-b][1,4]oxazin-6-yl)-5-fluoro-N2-[4-((2R)-2-methylmorpholino)phenyl]-2,4-pyrimidinediamine]: < 100 nM; `C[C@H]1COCCN1c1ccc(Nc2ncc(F)c(Nc3ccc4c(n3)NC(=O)CO4)n2)cc1` [Compound 119, N4-(3,4-dihydro-3-oxo-2H-pyrido[3,2-b][1,4]oxazin-6-yl)-5-fluoro-N2-[4-((3S)-3-methylmorpholino)phenyl]-2,4-pyrimidinediamine]: < 100 nM.
As to `C[C@H]1COCCN1c1ccc(Nc2ncc(F)c(Nc3ccc4c(n3)NC(=O)C(C)(C)O4)n2)cc1` [Compound 120, N4-(2,2-dimethyl-3,4-dihydro-3-oxo-2H-pyrido[3,2-b][1,4]oxazin-6-yl)-5-fluoro-N2-[4-((3S)-3-methylmorpholino)phenyl]-2,4-pyrimidinediamine], the half-inhibitory concentration (IC50) lay within 100 to 500 nM.
The same measure, in the same setting: for `CN(C)C[C@@H]1CN(c2ccc(Nc3ncc(F)c(Nc4ccc5c(n4)NC(=O)C(C)(C)O5)n3)cc2)CCO1` [Compound 122] the value was 100 to 500 nM; for `O=C1Nc2nc(Nc3nc(Nc4ccc(N5CCOCC5)cc4)ncc3F)ccc2OC12CCC2` [Compound 123, 5-Fluoro-N2-(4-morpholinophenyl)-N4-(3′-oxo-3′,4′-dihydrospiro[cyclobutane-1,2′-pyrido[3,2-b][1,4]oxazine]-6-yl)-2,4-pyrimidinediamine], 100 to 500 nM.
On the same count and under the same terms, next, `CC1(C)CN(c2ccc(Nc3ncc(F)c(Nc4ccc5c(n4)NC(=O)C4(CCC4)O5)n3)cc2)CCO1` [Compound 124, N2-[4-(2,2-Dimethylmorpholino)phenyl]-5-fluoro-N4-(3′-oxo-3′,4′-dihydrospiro[cyclobutane-1,2′-pyrido[3,2-b][1,4]oxazine]-6-yl)-2,4-pyrimidinediamine]: 1000 to 100000 nM; `O=C1COc2ccc(Nc3nc(Nc4ccc(N5CCO[C@@H](CO)C5)cc4)ncc3F)nc2N1` [Compound 127, N4-(3,4-dihydro-3-oxo-2H-pyrido[3,2-b][1,4]oxazin-6-yl)-5-fluoro-N2-[4-((2-hydroxymethyl)morpholino)phenyl]-2,4-pyrimidinediamine]: < 100 nM.
Turning to `CC1(C)Oc2ccc(Nc3nc(Nc4ccc(N5CCO[C@@H](CO)C5)cc4)ncc3F)nc2NC1=O` [Compound 128, N4-(2,2-dimethyl-3,4-dihydro-3-oxo-2H-pyrido[3,2-b][1,4]oxazin-6-yl)-5-fluoro-N2-[4-((2-hydroxymethyl)morpholino)phenyl]-2,4-pyrimidinediamine], the half-inhibitory concentration (IC50) was < 100 nM.
On the same count and under the same terms, for `[2H]C1([2H])OC([2H])([2H])C([2H])([2H])N(c2ccc(Nc3ncc(F)c(Nc4ccc5c(n4)NC(=O)CO5)n3)cc2)C1([2H])[2H]` [Compound 130, N4-(2,2-dimethyl-3,4-dihydro-3-oxo-2H-pyrido[3,2-b][1,4]oxazin-6-yl)-5-fluoro-N2-[4-(2,2,3,3,5,5,6,6-d8-morpholino)phenyl]-2,4-pyrimidinediamine] the value was < 100 nM; for `[2H]C1([2H])OC([2H])([2H])C([2H])([2H])N(c2ccc(Nc3ncc(F)c(Nc4ccc5c(n4)NC(=O)C(C)(C)O5)n3)cc2)C1([2H])[2H]` [Compound 131, N4-(2,2-dimethyl-3,4-dihydro-3-oxo-2H-pyrido[3,2-b][1,4]oxazin-6-yl)-5-fluoro-N2-[4-(2,2,3,3,5,5,6,6-d8-morpholino)phenyl]-2,4-pyrimidinediamine], < 100 nM; for `CC1(C)Oc2ccc(Nc3nc(Nc4ccc5nc(-c6ccncc6)[nH]c5c4)ncc3F)nc2NC1=O` [Compound 132, N4-(2,2-dimethyl-3,4-dihydro-3-oxo-2H-pyrido[3,2-b][1,4]oxazin-6-yl)-5-fluoro-N2-[2-(pyridin-4-yl)-1H-benzo[d]imidazol-6-yl]-2,4-pyrimidinediamine], < 100 nM.
For the compound `CC1(C)Oc2ccc(Nc3nc(Nc4ccc5ccncc5c4)ncc3F)nc2NC1=O` [Compound 133, N4-(2,2-dimethyl-3,4-dihydro-3-oxo-2H-pyrido[3,2-b][1,4]oxazin-6-yl)-5-fluoro-N2-(isoquinolin-7-yl)-2,4-pyrimidinediamine], the IC50 is < 100 nM.
With `CC1(C)Oc2ccc(Nc3nc(Nc4ccc(NC5CCOCC5)nc4)ncc3F)nc2NC1=O` [Compound 134], the IC50 was < 100 nM.
With `CC1(C)Oc2ccc(Nc3nc(Nc4ccc(N5CC[C@@H](F)C5)nc4)ncc3F)nc2NC1=O` [Compound 136, (R)—N4-(2,2-dimethyl-3,4-dihydro-3-oxo-2H-pyrido[3,2-b][1,4]oxazin-6-yl)-5-fluoro-N2-[6-(3-fluoropyrrolidin-1-yl)pyrid-3-yl]-2,4-pyrimidinediamine], the half-inhibitory concentration (IC50) was < 100 nM.
Take `C[C@H]1COCCN1c1ccc(Nc2ncc(F)c(Nc3ccc4c(n3)NC(=O)C(C)(C)O4)n2)cn1` [Compound 138, N4-(2,2-dimethyl-3,4-dihydro-3-oxo-2H-pyrido[3,2-b][1,4]oxazin-6-yl)-5-fluoro-N2-[6-((3S)-3-methylmorpholino)pyridin-3-yl]-2,4-pyrimidinediamine]: the concentration for half-maximal inhibition (IC50) was 100 to 500 nM.

The same experiment, now with this note: anti-IgG stimulation, activity of tryptase released upon degranulation.
As to `Cc1cc(Nc2ncc(F)c(Nc3ccc4c(n3)N(COP(=O)(O)O)C(=O)C(C)(C)O4)n2)ccc1N1CCOCC1` [Compound 112, N4-(2,2-dimethyl-3,4-dihydro-4-[(dihydrogenphosphonoxy)methyl]-3-oxo-2H-pyrido[3,2-b][1,4]oxazin-6-yl)-5-fluoro-N2-(3-methyl-4-morpholinophenyl)-2,4-pyrimidinediamine disodium salt], the IC50 lay within 500 to 1000 nM.
On the same count and under the same terms, next, `CC1(C)Oc2ccc(Nc3nc(Nc4ccc(N5CCOCC5)c(F)c4)ncc3F)nc2N(COP(=O)(O)O)C1=O` [Compound 113, N4-(2,2-dimethyl-3,4-dihydro-4-[(dihydrogenphosphonoxy)methyl]-3-oxo-2H-pyrido[3,2-b][1,4]oxazin-6-yl)-5-fluoro-N2-(3-fluoro-4-morpholinophenyl)-2,4-pyrimidinediamine disodium salt]: 1000 to 100000 nM; `O=C1COc2ccc(Nc3nc(Nc4ccc(N5CCOCC5)cc4)ncc3F)nc2N1COP(=O)(O)O` [Compound 114, N4-(3,4-dihydro-4-[(dihydrogenphosphonoxy)methyl]-3-oxo-2H-pyrido[3,2-b][1,4]oxazin-6-yl)-5-fluoro-N2-(4-morpholinophenyl)-2,4-pyrimidinediamine disodium salt]: 1000 to 100000 nM.
On the same count and under the same terms, for `CC1(C)CN(c2ccc(Nc3ncc(F)c(Nc4ccc5c(n4)N(COP(=O)(O)O)C(=O)CO5)n3)cc2)CCO1` [Compound 129, N4-(3,4-dihydro-4-[(dihydrogenphosphonoxy)methyl]-3-oxo-2H-pyrido[3,2-b][1,4]oxazin-6-yl)-5-fluoro-N2-[4-(2,2-dimethylmorpholino)phenyl]-2,4-pyrimidinediamine disodium salt] the value was 1000 to 100000 nM; for `CC1(C)Oc2ccc(Nc3nc(Nc4ccc(N5CCOCC5)nc4)ncc3F)nc2NC1=O` [Compound 139, N4-(2,2-dimethyl-3,4-dihydro-3-oxo-2H-pyrido[3,2-b][1,4]oxazin-6-yl)-5-fluoro-N2-[6-morpholinopyridin-3-yl]-2,4-pyrimidinediamine p-toluenesulfonic acid salt], 500 to 1000 nM.

The record behind these values is patent US8618095B2 (Rigel Pharmaceuticals, Inc., priority 2010, dated 2013).
